From US20050065118A1, “Organosulfur inhibitors of tyrosine phosphatases” (priority 2001, published 2005)

| Structure (SMILES) | melting point [°C] |
| --- | --- |
| Oc1ccc(Oc2cccc(-c3nnc(Nc4ccc(Cl)c(Cl)c4)s3)c2)cc1 [Example 128, 4-(3-{-[(3,4-dichlorophenyl)amino]-1,3,4-thiadiazol-2-yl}phenoxy)phenol] | 224 to 225.5 |
| COc1cccc(-c2nnc(Nc3ccc(Br)c(Cl)c3)s2)c1 [Example 69, (4-bromo-3-chlorophenyl)[5-(3-methoxyphenyl)(1,3,4-thiadiazol-2-yl)]amine] | 215 to 217 |
| CCOc1cccc(-c2nnc(Nc3cccc(Br)c3)s2)c1 [Example 74, (3-bromophenyl)[5-(3-ethoxyphenyl)(1,3,4-thiadiazol-2-yl)]amine] | 195 to 197 |
| FC(F)(F)Oc1cccc(COc2cccc(-c3nnc(Nc4ccc(Cl)c(Cl)c4)s3)c2)c1 [Example 129, (3,4-dichlorophenyl)[5-(3-{[3-(trifluoromethoxy)phenyl]methoxy}phenyl)(1,3,4-thiadiazol-2-yl)]amine] | 166 to 167 |
| COc1ccc(CSc2cccc(Nc3nnc(-c4cccc([N+](=O)[O-])c4)s3)c2)cc1 [Example 41, {3-[(4-Methoxyphenyl)methylthio]phenyl}[5-(3-nitrophenyl)(1,3,4-thiadiazol-2-yl)]amine] | 208 to 209 |
| Clc1cc(Cl)cc(Oc2cccc(-c3nnc(Nc4ccc(Cl)c(Cl)c4)s3)c2)c1 [Example 152, (3,4-dichlorophenyl){5-[3-(3,5-dichlorophenoxy)phenyl](1,3,4-thiadiazol-2-yl)}amine] | 242 to 243 |
| CC(=NNc1ccc(C(=O)O)cc1)c1cccc(Nc2nnc(-c3cccc(Oc4cccc(C(F)(F)F)c4)c3)s2)c1 [Example 165, 4-{N′-[1-(3-{5-[3-(3-Trifluoromethyl-phenoxy)-phenyl]-[1,3,4]thiadiazol-2-ylamino}-phenyl)-ethylidene]-hydrazino}-benzoic acid] | 277.5 to 279 |
| O=[N+]([O-])c1cccc(-c2nnc(Nc3cccc(Br)c3)s2)c1 [Example 1, N2-(3-bromophenyl)-5-(3-nitrophenyl)-1,3,4-thiadiazol-2-amine] | 273 to 275 |
| Nc1nnc(-c2cccc(Oc3cccc(COc4ccc(Cl)c(Cl)c4)c3)c2)s1 [Example 158, (3,4-dichlorophenyl)(5-{3-[3-(oxymethyl)phenoxy]phenyl)(1,3,4-thiadiazol-2-yl))amine] | 128 to 130 |
| O=C(O)CCc1cccc(Oc2cccc(-c3nnc(Nc4ccc(Cl)c(Cl)c4)s3)c2)c1 [Example 9, 3-[3-(3-{5-[(3,4-Dichlorophenyl)amino]-1,3,4-thiadiazol-2-yl}phenoxy)phenyl]propanoic acid] | 194 to 196 |
| O=C(O)c1ccc(CNc2nnc(-c3cccc(Oc4ccccc4)c3)s2)cc1 [Example 166, 4-({[5-(3-phenoxyphenyl)-1,3,4-thiadiazol-2-yl]amino}methyl)benzoic acid] | 192 to 195 |
| COc1ccc(Oc2cccc(-c3nnc(Nc4ccc(Cl)c(Cl)c4)s3)c2)cc1 [Example 150, (3,4-dichlorophenyl)(5-[3-(4-methoxyphenoxy)phenyl](1,3,4-thiadiazol-2-yl)}amine] | 198 to 199 |
| Clc1ccc(Nc2nnc(-c3ccc4nonc4c3)s2)cc1Cl [Example 162, (5-benzo[c]1,2,5-oxadiazol-5-yl(1,3,4-thiadiazol-2-yl))(3,4-dichlorophenyl)amine] | 315 to 317 |
| Clc1ccc(Nc2nnc(-c3cc(OCc4ccccc4)cc(OCc4ccccc4)c3)s2)cc1Cl [Example 160, (3,4-dichlorophenyl){5-[3,5-bis(phenylmethoxy)phenyl](1,3,4-thiadiazol-2-yl)}amine] | 212 to 214 |
| O=C(O)CCSC(c1cccc(-c2nnc(Nc3ccc(Cl)c(Cl)c3)s2)c1)c1cccc(C(F)(F)F)c1 (stereo not shown) | 140 to 141 |
| Clc1cc(Nc2nnc(-c3ccc4nonc4c3)s2)ccc1Br [Example 122, (5-benzo[3,4-c]1,2,5-oxadiazol-5-yl(1,3,4-thiadiazol-2-yl))(4-bromo-3-chlorophenyl)amine] | 326 to 327 |
